In assay [1] the test system is mast cell activation induced by FcγR cross-linking (CHMC cells). Description: LD Tryptase CHMC: tryptase release assay. Format: cell-based, Human. Conditions: for inhibition in tryptase assay, in words: prodrug. The procedure:
Compounds are assayed for inhibition of mast cell activation induced by FcγR cross-linking by measuring the activity of tryptase released upon degranulation as follows:
Human mast cells are cultured and differentiated from CD38-negative progenitor cell as described in U.S. Patent Publication No. 2005/0234049, which is hereby incorporated herein by reference in its entirety. For example, 65 μL of various concentrations of the test compound are prepared in MT (137 mM NaCl, 2.7 mM KCl, 1.8 mM CaCl2, 1.0 mM MgCl2, 5.6 mM Glucose, 20 mM Hepes (pH 7.4), 0.1% Bovine Serum Albumin, (Sigma, #A4503)) containing 2% MeOH and 1% DMSO, or control buffer are added to duplicate 96-well V-bottom plates. Pelleted and re-suspended (in warm MT) CHMC cells (65 μL) are added to each 96-well plate, mixed and incubated for 1 hour at 37° C. […] MT (25 μL) is added to control wells. After a 60-minute incubation at 37° C., cells and cell debris were pelleted by centrifugation at 1000 rpm for 10 min and tryptase and leukotriene C4 levels are measured.
To measure tryptase levels, 25 μL of supernatant from each well is transferred to a fresh 96-well black bottom plate, to which 100 μL of fresh tryptase substrate solution [(Z-Ala-Lys-Arg-AMC2TFA; Enzyme Systems Products, #AMC-246)]1:2000 in tryptase assay buffer [0.1M Hepes (pH 7.5), 10% w/v Glycerol, 10 μM Heparin (Sigma H-4898) 0.01% NaN3] is added. After 30 minutes incubation at room temperature, the optical density of the plates is measured at 355 nm/460 nm on a spectrophotometric plate reader.
Compounds of the disclosure were assayed for their ability to inhibit mast cell activation induced by FcγR cross-linking by measuring the activity of tryptase released upon degranulation.

For assay [2], the system named is allergen induced basophil degranulation. The experiment in a line: CD63 Assay (BASOTEST, FACS, whole blood, anti-IgE). Format: cell-based. Conditions: whole blood, anti-IgE; Table 2, unit inferred. As for the experimental part: Compounds are tested for the ability to inhibit allergen induced basophil degranulation. The BASOTEST® kit (Orpegen Pharma GmbH, #10-0500) is used in this assay. In a 5 mL FACS tube 105 μL of Heparinized whole blood, 25 μL of test compound solution (in DMSO) are incubated at room temperature for 30-60 minutes. To induce degranulation, 20 μL stimulation buffer (Reagent B) is added, and the tube is incubated for 10 min in a 37° C. water bath. Then, 100 μL of anti-IgE (2 μg/mL) is added, or 100 µL of washing solution (reagent A) is added (i.e., as a negative control). The tube is incubated for 20 min in a 37° C. water bath. Degranulation is then stopped by incubation on ice for 5 min. 20 μL of staining reagent (reagent F) is added, and the tube is incubated on ice in the dark for 20 min. 2 mL of room temperature lysing solution is added, and the tube is incubated at room temperature for 10 min. The tubes are spun down at 4° C. for 5 min at 1600 rpm, and the supernatant is discarded. 3 mL washing solution (reagent A) is added, and the tubes spun down at 4° C. for 5 min at 1600 rpm, and the supernatant is discarded. 200 μL washing solution is added to the remaining cell pellet, and the samples are incubated on ice in the dark until analysis (within 2 h). Analysis is performed using flow cytometry at 488 nm using the conditions specified in the BASOTEST® kit instructions to determine percentage of activated basophilic granulocytes.

The mark [3] stands for this setting: human mast cells, anti-IgG stimulation, read-out: IC50 (LD Tryptase CHMC).

Structures are written as SMILES. Like-named read-outs stand apart in the source and are kept apart here.

With `COc1cc(Nc2ncc(F)c(Nc3ccc4c(n3)NC(=O)C(C)(C)O4)n2)cc(OC)c1OC` [N4-(2,2-Dimethyl-3-oxo-4H-5-pyrido[1,4]oxazin-6-yl)-5-fluoro-N2-(3,4,5-trimethoxyphenyl)-2,4-pyrimidinediamine, reference compound], the IC50 in assay [1] (Homo sapiens, Mast cell, Table 2, unit inferred, read-out: LD Tryptase CHMC) was found to be 40 nM; in assay [2], 930 nM.

In the case of `CC1(C)Oc2ccc(Nc3nc(Nc4ccc(N5CCOCC5)cc4)ncc3F)nc2N(COP(=O)([O-])[O-])C1=O.[Na+].[Na+]` [Compound 4, N4-[2,2-Dimethyl-4-[(dihydrogenphosphonoxy)methyl]-3-oxo-5-pyrido[1,4]oxazin-6-yl]-5-fluoro-N2-(4-morpholinophenyl)-2,4-pyrimidinediamine disodium salt], the IC50 in assay [1] (setting [3]) is 2360 nM. In assay [1], the “inhibition in tryptase assay, in words” value is “only micromolar inhibition”.

As for `CC1(C)Oc2ccc(Nc3nc(Nc4ccc(N5CCOCC5)nc4)ncc3F)nc2N(COP(=O)([O-])[O-])C1=O.[Na+].[Na+]` [Compound 2, N4-[2,2-Dimethyl-4-[(dihydrogenphosphonoxy)methyl]-3-oxo-5-pyrido[1,4]oxazin-6-yl]-5-fluoro-N2-(6-morpholinopyridin-3-yl)-2,4-pyrimidinediamine disodium salt], the IC50 in assay [1] (setting [3]) was found to be 21900 nM. Moreover, the “inhibition in tryptase assay, in words” value in assay [1] is given as “only micromolar inhibition”.
